From patent US8349801B2, “Peptide ligands for G-protein coupled receptors” (priority 2006, dated 2013) come the findings set out here.

No end group written: not given here.

This assay deals with Isoproterenol induced rats. The assay can be described thus: Cardiac remodeling induced by Isoproterenol. The format is in vivo, Wistar rats. To be noted: 1 ug/hour/Kg osmotic minipump, partial data. On the procedure: The effect of the peptides […] (SEQ ID NO:10), […]-dimer ([…]) (SEQ ID […]), P33_V (SEQ ID NO:7), P33-dimer (P33_D) (SEQ ID NO:6) on cardiac remodeling, was tested by determining their effect on heart hypertrophy and fibrosis (deposition of collagen I, III, and fibronectin) induced by Isoproterenol. Losartan (an antagonist of the known angiotensin II receptor, AT1, Kucharewicz et al., 2002; Hypertension, (40): 774-779) was used as positive control. The negative control group was treated with vehicle only. Additional control groups included rats not-treated with isoproterenol which were treated with the peptides, with Losartan or with the vehicle. The analysis included determination of the left ventricle mass and morphometry. In addition, immunofuorescence analysis of fibronectin and collagens I and III deposition was performed by confocal microscopy. Animals Acclimatization: Male Wistar rats Age: 13-14 weeks (250 to 300 g) were maintained in the animal facilities for 7 days before the beginning of the experiment. The animals were exposed to a brightness circle of light-dark cycle of 12 hs (day-06:00 to 18:00; night-18:00 to 06:00), and the room temperature was kept at 23±2° C. Heart failure was induced by daily injections of isoproterenol (2 mg/kg/day, subcutaneously) during 7 days. […] Immunofluorescence-labeling and quantitative confocal microscopy was used to investigate the distribution and quantity of collagen types I, III and fibronectin present in the left ventricles. […] Optimal confocal settings (aperture, gain and laser power) were determined at the beginning of each imaging session and then held constant during the analysis of all the samples. […] For quantitative analysis of collagens I, III, and fibronectin, the ImageTool 2.0 image analysis program was used ([…].edu/[…]) to measure the fluorescence intensity in images randomly selected. […]

On to “FLGYCIYLNRKRRGDPAFKRRLRD (also: dimer via cysteine; listed as Homo sapiens) [Peptide P61_dimer]”, for which the “effect as measured by Fibronectin deposition” value (3 out of 6 animals) is on record as “not significant”. In addition, for the setting “3 out of 6 animals of each group”, the “heart hypertrophy induced by Isoproterenol, as indicated by deposition of fibronectin, Collagen I and Collagen III” value is on record as “effective in reducing the heart hypertrophy”.
